# Assay results published in patent US11896592B2, “Certain triazolopyridines and triazolopyrazines, compositions thereof and methods of use therefor” (Hutchison Medipharma Limited, priority 2009, dated 2024).
# Target: T1, Recombinant human Met (c-Met) (Homo sapiens, UniProt P08581)
# T1 construct: purchased Invitrogen PV3143
# Assay: Inhibition of c-Met kinase activity using Transcreener FP assay
# Assay type: biochemical
# Details: IC50, inhibition of c-Met kinase activity, Poly E4Y substrate, 28° C. 45 min
# Procedure: Compound dilution: dilute test articles to 5 folds of the testing concentration using 20% DMSO.
# The mixture is kept on ice until use;
# Prepare ATP standard curve stock as following:
# 3. Enzymatic reaction: in 96-well reaction plate
# Add 5 μL of test article or 5 μL of 20% DMSO or 5 μL of 500 mM EDTA;
# Add 10 μL of Enzyme/Substrate stock;
# Add 10 μL of ATP Diluent to begin the enzyme reaction and mix on plate shaker;
# Add 5 μL of 20% DMSO, 10 μL of assay buffer and 10 μL of ATP standard curve stock into standard curve wells;
# Gently shake at 28° C. for 45 min.
# 4. Stop reaction and detect ADP
# Prepare Detection Mix: According to the procedures described in the Assay kit, Alexa633 tracer, ADP antibody and stop & detect buffer were added into H2O and mixed thoroughly. Prepare Tracer Only control: According to the procedures described in the Assay kit, ADP Alexa633 tracer and stop & detect buffer were added to H2O and mixed throughly.
# Prepare No Tracer control: According to the procedures described in the Assay kit, the stop & detect buffer was diluted with H2O;
# Add 25 μL of detection mix, Tracer Only control and No Tracer control into corresponding wells, respectively;
# The reaction plate was gently shaken at 28° C. for 1 h;
# Florescence polarization (FP) was measured on TECAN F500. Excitation wavelength: 610 nm, Emission wavelength: 670 nm.
# Compound well [ADP] represents the ADP concentration of the compound well. Positive control well [ADP] represents the ADP concentration of the 20% DMSO well. Conversion of mP value to ADP concentration is based on the formula which is determined by standard curve.
# IC50: calculated using XL-Fit 2.0 software.
# T1 sequence (P08581 956-1390 limits assumed): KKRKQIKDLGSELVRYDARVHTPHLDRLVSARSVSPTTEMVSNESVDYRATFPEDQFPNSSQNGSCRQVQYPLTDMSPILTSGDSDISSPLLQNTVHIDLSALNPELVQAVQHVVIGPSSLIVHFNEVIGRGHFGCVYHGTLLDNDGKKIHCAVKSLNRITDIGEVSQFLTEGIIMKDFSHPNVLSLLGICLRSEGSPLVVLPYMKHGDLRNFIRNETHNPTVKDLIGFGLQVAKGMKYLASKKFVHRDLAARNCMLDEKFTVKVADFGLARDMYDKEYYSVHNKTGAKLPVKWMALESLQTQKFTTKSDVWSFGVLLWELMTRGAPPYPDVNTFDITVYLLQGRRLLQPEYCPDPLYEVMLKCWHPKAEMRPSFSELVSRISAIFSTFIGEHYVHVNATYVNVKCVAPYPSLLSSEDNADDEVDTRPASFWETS
row,IC50,Structure (SMILES)
1,0.001 to 0.1 µM,C[C@H](c1ccc2nccn2c1)n1nnc2ncc(-c3cnn(C)c3)nc21 [Compound 271]

# Same assay, conditions: Poly E4Y substrate, 28° C. 45 min, read-out: IC50, inhibition of c-Met kinase activity
row,Structure (SMILES),IC50
1,N#Cc1ccc(Nc2cnc3nnn(Cc4ccc5ncccc5c4)c3n2)nc1 [Compound 225],0.001 to 0.1 µM
2,OCCn1cc(Nc2cnc3nnn(Cc4ccc5ncsc5c4)c3n2)cn1 [Compound 240],0.001 to 0.1 µM
3,COCCOc1cccc(-c2ccc3nnn(Cc4ccc5ncccc5c4)c3n2)c1 [Compound 96],0.1 to 1 µM
4,Cn1cc(-c2cnc3nnn(Cc4ccc5ncsc5c4)c3n2)cn1 [Compound 11],0.001 to 0.1 µM
5,CCCn1cc(-c2cnc3nnn(Cc4ccc5nccn5c4)c3n2)cn1 [Compound 47],0.001 to 0.1 µM
6,OCCn1cc(-c2ccc3nnn(Cc4c[nH]c5ncccc45)c3n2)cn1 [Compound 86],0.001 to 0.1 µM
7,CCOCc1cnc2ccc(Cn3nnc4ncc(-c5cnn(C)c5)nc43)cn12 [Compound 321],0.001 to 0.1 µM
8,"O=Cc1cnn2ccc(Cn3nnc4ncc(-c5cnn(CCO)c5)nc43)cc12 [Compound 312, 5-((6-(1-(2-Hydroxyethyl)-1H-pyrazol-4-yl)-1H-[1,2,3]triazolo[4,5-b]pyrazin-1-yl)methyl)pyrazolo[1,5-a]pyridine-3-carbaldehyde]",0.001 to 0.1 µM
9,Clc1ccnc(Nc2cnc3nnn(Cc4ccc5ncccc5c4)c3n2)c1 [Compound 153],0.001 to 0.1 µM
10,c1nn(C2CCNCC2)cc1-c1cnc2nnn(Cc3cc4[nH]ncc4s3)c2n1 [Compound 17],0.1 to 1 µM
11,Clc1ccc(Nc2cnc3nnn(Cc4ccc5ncccc5c4)c3n2)nc1 [Compound 164],0.001 to 0.1 µM
12,c1nn(C2CNC2)cc1-c1cnc2nnn(Cc3cc4[nH]ncc4s3)c2n1 [Compound 283],0.001 to 0.1 µM
13,c1nn(C2COC2)cc1-c1cnc2nnn(Cc3cc4[nH]ncc4s3)c2n1 [Compound 296],0.1 to 1 µM
14,"Cn1cc(-c2cnc3nnn(Cc4ccc5ncc(C=O)n5c4)c3n2)cn1 [Compound 307, 6-((6-(1-Methyl-1H-pyrazol-4-yl)-1H-[1,2,3]triazolo[4,5-b]pyrazin-1-yl)methyl)-imidazo[1,2-a]pyridine-3-carbaldehyde]",0.001 to 0.1 µM
15,c1cc2sc(Cn3nnc4ncc(-c5cnn(C6CCOCC6)c5)nc43)cc2cn1 [Compound 22],0.1 to 1 µM
16,COc1cccc(-c2ccc3nnn(Cc4ccc5ncccc5c4)c3n2)c1 [Compound 88],0.001 to 0.1 µM

row,Structure (SMILES),IC50
1,FC(F)(F)Cn1cc(-c2ccc3nnn(Cc4ccc5nccn5c4)c3n2)cn1 [Compound 141],0.001 to 0.1 µM
2,"COCc1cnc2ccc(C(C)n3nnc4ncc(-c5cnn(C)c5)nc43)cn12 (racemic) [Compound 318, 1-(1-(3-(methoxymethyl)imidazo[1,2-a]pyridin-6-yl)ethyl)-6-(1-methyl-1H-pyrazol-4-yl)-1H-[1,2,3]triazolo[4,5-b]pyrazine]",0.001 to 0.1 µM
3,Cn1ccc(Nc2ccc3nnn(Cc4ccc5ncccc5c4)c3n2)n1 [Compound 189],0.001 to 0.1 µM
4,COc1ncc(-c2cnc3nnn(C(C)c4ccc5nccn5c4)c3n2)cc1NS(C)(=O)=O (stereo not drawn) [Compound 329],0.001 to 0.1 µM
5,c1cnc2ccc(Cn3nnc4ncc(Nc5ccnc(O[C@@H]6CCOC6)c5)nc43)cc2c1 [Compound 218],0.001 to 0.1 µM
6,c1cnc2ccc(Cn3nnc4ccc(-c5cn[nH]c5)nc43)cc2c1 [Compound 145],0.001 to 0.1 µM
7,N#Cc1ccc(-c2cnc3nnn(Cc4cc5[nH]ncc5s4)c3n2)cn1 [Compound 282],0.001 to 0.1 µM
8,OC1COCC1Nc1ccnc(Nc2cnc3nnn(Cc4ccc5ncccc5c4)c3n2)c1 (stereo not drawn) [Compound 226],0.001 to 0.1 µM
9,OCCn1cc(-c2ccc3nnn(Cc4ccc5ncccc5c4F)c3n2)cn1 [Compound 130],0.001 to 0.1 µM
10,CS(=O)(=O)Nc1ccc(-c2ccc3nnn(Cc4ccc5ncccc5c4)c3n2)cc1 [Compound 84],0.001 to 0.1 µM
11,OCCn1cc(-c2cnc3nnn(Cc4csc5ncccc45)c3n2)cn1 [Compound 30],0.1 to 1 µM
12,"Cn1cc(-c2cnc3nnn(Cc4ccc5ncc(Br)n5c4)c3n2)cn1 [Compound 278, 1-((3-Bromoimidazo[1,2-a]pyridin-6-yl)methyl)-6-(1-methyl-1H-pyrazol-4-yl)-1H-[1,2,3]triazolo[4,5-b]pyrazine]",0.001 to 0.1 µM
13,OCCn1cc(-c2ccc3nnn(Cc4ccc5ncnn5c4)c3n2)cn1 [Compound 126],0.1 to 1 µM
14,CC(c1cc2cnccc2s1)n1nnc2ncc(-c3cnn(CCO)c3)nc21 (stereo not drawn) [Compound 21],0.001 to 0.1 µM
15,CC(=O)Nc1ccc(-c2ccc3nnn(Cc4c[nH]c5ncccc45)c3n2)cn1 [Compound 115],0.001 to 0.1 µM

# Further lines, results first:
row,IC50,Structure (SMILES)
1,0.1 to 1 µM,N#Cc1ccc(-c2ccc3nnn(Cc4ccc5ncccc5c4)c3n2)cn1 [Compound 103]
2,0.001 to 0.1 µM,N#CCn1cc(-c2cnc3nnn(Cc4ccc5nccn5c4)c3n2)cn1 [Compound 35]
3,0.1 to 1 µM,c1nc2ccc(Cn3nnc4ncc(-c5cnn(C6CCOCC6)c5)nc43)cn2n1 [Compound 55]
4,0.001 to 0.1 µM,COC(=O)c1cnn2ccc(Cn3nnc4ncc(-c5cnn(CCO)c5)nc43)cc12 [Compound 304]
5,0.001 to 0.1 µM,c1cnc2ccc(Cn3nnc4ccc(-c5cc[nH]n5)nc43)cc2c1 [Compound 81]
6,0.001 to 0.1 µM,c1cncc(Oc2cnc3nnn(Cc4ccc5ncccc5c4)c3n2)c1 [Compound 258]
7,0.001 to 0.1 µM,N#CCn1cc(-c2cnc3nnn(Cc4cc5[nH]ncc5s4)c3n2)cn1 [Compound 27]
8,0.001 to 0.1 µM,OC1CCN(c2ccc3nnn(Cc4ccc5ncccc5c4)c3n2)C1 (stereo not drawn) [Compound 246]
9,0.001 to 0.1 µM,Cc1cccnc1Nc1cnc2nnn(Cc3ccc4ncccc4c3)c2n1 [Compound 188]
10,0.1 to 1 µM,CNCCCn1cc(-c2ccc3nnn(Cc4ccc5ncccc5c4)c3n2)cn1 [Compound 92]
11,0.1 to 1 µM,OCCn1cnc(-c2ccc3nnn(Cc4ccc5ncccc5c4)c3n2)c1 [Compound 109]
12,0.001 to 0.1 µM,c1cnc2ccc(Cn3nnc4ncc(Nc5cncc(N6CCOCC6)c5)nc43)cc2c1 [Compound 193]
13,0.001 to 0.1 µM,CC(C)n1cc(-c2cnc3nnn(Cc4ccc5nccn5c4)c3n2)cn1 [Compound 34]
14,0.001 to 0.1 µM,O=C(Cn1cc(-c2cnc3nnn(Cc4ccc5ncsc5c4)c3n2)cn1)NC1CC1 [Compound 24]
15,0.1 to 1 µM,COCCOc1ncccc1Nc1cnc2nnn(Cc3ccc4ncccc4c3)c2n1 [Compound 216]
16,0.001 to 0.1 µM,c1cc(-c2cnc3nnn(Cc4ccc5nccn5c4)c3n2)ccn1 [Compound 275]
17,0.001 to 0.1 µM,"Cn1cc(-c2cnc3nnn(Cc4c[nH]c5ncccc45)c3n2)cn1 [Compound 1, 1-((1H-Pyrrolo[2,3-b]pyridin-3-yl)methyl)-6-(1-methyl-1H-pyrazol-4-yl)-1H-[1,2,3]-triazolo[4,5-b]pyrazine]"
18,0.001 to 0.1 µM,COCCOc1ccnc(Nc2cnc3nnn(Cc4ccc5ncccc5c4)c3n2)c1 [Compound 185]
19,0.001 to 0.1 µM,FC(F)(F)c1cccc(Nc2cnc3nnn(Cc4ccc5ncccc5c4)c3n2)n1 [Compound 221]

row,IC50,Structure (SMILES)
1,0.001 to 0.1 µM,CS(=O)(=O)Nc1cccc(-c2ccc3nnn(Cc4ccc5ncccc5c4)c3n2)c1 [Compound 85]
2,0.001 to 0.1 µM,CNC(=O)c1cncc(Nc2cnc3nnn(Cc4ccc5ncccc5c4)c3n2)c1 [Compound 192]
3,0.001 to 0.1 µM,"Cn1ccc(Nc2cnc3nnn(Cc4ccc5ncccc5c4)c3n2)n1 [Compound 152, N-(1-methyl-1H-pyrazol-3-yl)-1-(quinolin-6-ylmethyl)-1H-[1,2,3]triazolo-[4,5-b]pyrazin-6-amine]"
4,0.1 to 1 µM,COCCOc1ccncc1Nc1cnc2nnn(Cc3ccc4ncccc4c3)c2n1 [Compound 208]
5,0.001 to 0.1 µM,COCCn1cc(-c2cnc3nnn(Cc4ccn5nccc5c4)c3n2)cn1 [Compound 268]
6,0.1 to 1 µM,CN1CCC(n2cc(-c3ccc4nnn(Cc5ccc6ncccc6c5)c4n3)cn2)CC1 [Compound 101]
7,0.1 to 1 µM,Cn1cc(-c2ccc3nnn(C4(c5ccc6ncccc6c5)CC4)c3n2)cn1 [Compound 122]
8,0.001 to 0.1 µM,COc1ccc(-c2cnc3nnn(Cc4ccc5nccn5c4)c3n2)cc1 [Compound 57]
9,0.001 to 0.1 µM,c1cncc(Nc2cnc3nnn(Cc4ccc5ncccc5c4)c3n2)c1 [Compound 212]
10,0.001 to 0.1 µM,CCn1cc(-c2cnc3nnn(Cc4n[nH]c5ncccc45)c3n2)cn1 [Compound 49]
11,0.001 to 0.1 µM,COCc1cnc2ccc(Cn3nnc4ncc(-c5cnn(C)c5)nc43)cn12 [Compound 308]
12,0.001 to 0.1 µM,CC(c1ccc2ncccc2c1)n1nnc2ccc(-c3cnn(CCO)c3)nc21 (racemic) [Compound 332]
13,0.001 to 0.1 µM,COc1cc(Nc2ccc3nnn(Cc4ccc5ncccc5c4)c3n2)ccn1 [Compound 179]
14,0.001 to 0.1 µM,c1ccc(Sc2cnc3nnn(Cc4ccc5ncccc5c4)c3n2)nc1 [Compound 252]
15,0.1 to 1 µM,COCCNc1ccncc1Nc1cnc2nnn(Cc3ccc4ncccc4c3)c2n1 [Compound 209]
16,0.1 to 1 µM,CNC(=O)c1ccnc(Nc2cnc3nnn(Cc4ccc5ncccc5c4)c3n2)c1 [Compound 174]
17,0.001 to 0.1 µM,Cc1ccc(Nc2cnc3nnn(Cc4ccc5ncccc5c4)c3n2)cn1 [Compound 155]
18,0.001 to 0.1 µM,COc1cncc(Nc2cnc3nnn(Cc4ccc5ncccc5c4)c3n2)c1 [Compound 156]
